Where a SMILES comes first, the peptide text is derived from it. Side-chain parts run from the residue outwards. The star is where a group is joined. Cbz = O=C(OCc1ccccc1)*; Boc = CC(C)(C)OC(=O)*

Experimental findings from ChEMBL document CHEMBL3596126, “Synthesis, molecular docking and anticancer studies of peptides and iso-peptides” (Bioorg Med Chem Lett, 2015) are described below.

Data set [1] in a line: Cytotoxicity against HEK293 cells assessed as cell survival at 20 ug/ml after 6 hrs by SRB assay relative to control. The following applies: human, read-out: Survival. Type of data set: cell-based.
The subject of a further data set is MDA-MB-231. The data set is described as follows: Cytotoxicity against human MDA-MB-231 cells assessed as cell survival at 20 ug/ml relative to control. Format: functional. To be noted: read-out: Survival.
The next data set concerns HEK293. The data set is described as follows: Inhibition of TNF-alpha activated nuclear factor-kappa B in HEK293 cells at 20 ug/ml after 6 hrs by luciferase reporter gene assay relative to control. The following applies: Homo sapiens. Type of data set: cell-based.
The target of data set [2] is NAD(P)H dehydrogenase [quinone] 1 (Mus musculus) (UniProt Q64669). The data set is described as follows: Activation of Quinone reductase-1 in mouse Hepa-1c1c7 cells assessed as induction ratio at 20 ug/ml after 48 hrs by MTT assay. Format: cell-based.
Another data set has as its system MCF7. In words: Cytotoxicity against human MCF7 cells assessed as cell survival at 20 ug/ml relative to control. Type of data set: functional. To be noted: read-out: Survival.
The nature of data set [3]: Inhibition of TNF-alpha activated nuclear factor-kappa B in HEK293 cells after 6 hrs by luciferase reporter gene assay. Format: cell-based. To be noted: Homo sapiens, HEK293, 6 h.

Chain of NAD(P)H dehydrogenase [quinone] 1 (Mus musculus) (Q64669 whole entry): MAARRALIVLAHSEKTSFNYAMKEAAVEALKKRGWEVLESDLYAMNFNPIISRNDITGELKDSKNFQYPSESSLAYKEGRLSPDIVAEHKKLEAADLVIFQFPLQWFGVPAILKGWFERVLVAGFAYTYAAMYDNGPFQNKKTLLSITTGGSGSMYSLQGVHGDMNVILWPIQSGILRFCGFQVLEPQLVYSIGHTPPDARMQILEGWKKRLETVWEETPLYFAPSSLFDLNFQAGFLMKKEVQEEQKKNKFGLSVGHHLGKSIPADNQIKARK

Turning to `O=C(N[C@@H](Cc1ccccc1)C(=O)N[C@@H](CO)C(=O)O)OCc1ccccc1`, in data set [1], the viability at 6 h, 20 ug/ml stood at 119%. The viability at 20 µg/mL was determined as 99.9% in the data set with MDA-MB-231 and 75.8% with MCF7. Also, the inhibition in the data set on HEK293 worked out at 18.3%. Further, the Ratio in data set [2] worked out at 1.2.

Regarding `C[C@H](NC(=O)OC(C)(C)C)C(=O)n1nnc2ccccc21`, in data set [1], the viability at 6 h, 20 ug/ml was found to be 122%. Moreover, the results for the viability at 20 µg/mL in the data set with MDA-MB-231 and in the data set on MCF7 were 90.9% and 75.8%, respectively. The inhibition in the data set on HEK293 turned out to be 35.7%. Also, the Ratio in data set [2] turned out to be 1.2.

`CC(C)(C)OC(=O)NCC(=O)n1nnc2ccccc21`: the viability at 6 h, 20 ug/ml in data set [1] was 110%. Also, the viability at 20 µg/mL in the data set with MDA-MB-231 was 108%; in the data set on MCF7 it was 90.3%. The inhibition with HEK293 was found to be 41.3%. The Ratio in data set [2] turned out to be 1.1.

Regarding `C[C@H](NC(=O)OCc1ccccc1)C(=O)N[C@H](CO)C(=O)O`, the viability at 6 h, 20 ug/ml in data set [1] stood at 123%. The viability at 20 µg/mL with MDA-MB-231 stood at 94.9%; in the data set with MCF7, 66.3%. In addition, the inhibition in the data set on HEK293 was found to be 10.7%. For the same compound, in data set [2], the Ratio was found to be 0.9.

Regarding `CC(C)(C)OC(=O)NCC(=O)OC[C@H](NC(=O)[C@@H](N)Cc1ccccc1)C(=O)O` (H-Phe-Ser([Gly-Boc])-OH), in data set [1], the viability at 6 h, 20 ug/ml is 121%. Also, the values for the viability at 20 µg/mL in the data set with MDA-MB-231 and in the data set with MCF7 were 99.4% and 104%, respectively. Further, in the data set with HEK293, the inhibition is 14.8%. Besides, in data set [2], the Ratio came to 2.4.

Regarding `CC(C)(C)OC(=O)NCC(=O)OC[C@H](NC(=O)[C@H](Cc1ccccc1)NC(=O)OCc1ccccc1)C(=O)O`, the viability at 6 h, 20 ug/ml in data set [1] came to 136%. Also, the viability at 20 µg/mL was found to be 92.1% with MDA-MB-231 and 142% with MCF7. Further, the inhibition in the data set on HEK293 is -5.2%. Further, in data set [2], the Ratio is 1.1.

In the case of `CC(C)(C)OC(=O)NCC(=O)OC[C@@H](NC(=O)[C@H](Cc1ccccc1)NC(=O)OCc1ccccc1)C(=O)O`, the viability at 6 h, 20 ug/ml in data set [1] was 121%. The values for the viability at 20 µg/mL in the data set with MDA-MB-231 and in the data set with MCF7 were 106% and 126%, respectively. In addition, the inhibition with HEK293 was 10.1%. Further, the Ratio in data set [2] stood at 1.1.

`O=C(N[C@@H](Cc1ccccc1)C(=O)NCC(=O)n1nnc2ccccc21)OCc1ccccc1`: the viability at 6 h, 20 ug/ml in data set [1] was found to be 96.9%. Besides, the viability at 20 µg/mL with MDA-MB-231 was 106%; in the data set with MCF7 it was 93.2%. Further, in the data set with HEK293, the inhibition turned out to be 12.2%. Further, the Ratio in data set [2] came out at 0.9.

For the compound `C[C@H](NC(=O)OCc1ccccc1)C(=O)N[C@@H](Cc1ccccc1)C(=O)n1nnc2ccccc21`, the viability at 6 h, 20 ug/ml in data set [1] was found to be 104%. Further, the viability at 20 µg/mL came to 91.4% with MDA-MB-231 and 59.3% in the data set on MCF7. For the same compound, in the data set with HEK293, the inhibition stood at 49.6%. In addition, the Ratio in data set [2] turned out to be 1.2.

Consider `C[C@H](OC(=O)CNC(=O)OC(C)(C)C)[C@H](NC(=O)[C@H](Cc1ccccc1)NC(=O)OCc1ccccc1)C(=O)O`, for which the viability at 6 h, 20 ug/ml in data set [1] came to 122%. The viability at 20 µg/mL was 83.9% in the data set on MDA-MB-231 and 114% in the data set on MCF7. Moreover, the inhibition in the data set with HEK293 is -4.1%. Moreover, in data set [2], the Ratio was 0.9.

As to `Cc1ccc(S(=O)(=O)N[C@@H](Cc2ccccc2)C(=O)CCl)cc1` [TPCK], the IC50 in data set [3] was determined as 5.05 µM. This counts as single-digit micromolar.

With `C[C@H](NC(=O)OCc1ccccc1)C(=O)N[C@@H](COC(=O)CNC(=O)OC(C)(C)C)C(=O)O` (Cbz-Ala-Ser([Gly-Boc])-OH), the viability at 6 h, 20 ug/ml in data set [1] is 108%. Also, the viability at 20 µg/mL in the data set with MDA-MB-231 came to 104%; in the data set with MCF7 it was 110%. Moreover, the inhibition in the data set on HEK293 was found to be 22%. For the same compound, in data set [2], the Ratio was found to be 2.5.

`C[C@H](OC(=O)CNC(=O)OC(C)(C)C)[C@H](NC(=O)[C@@H](N)Cc1ccccc1)C(=O)O`: the viability at 6 h, 20 ug/ml in data set [1] turned out to be 103%. Further, the viability at 20 µg/mL in the data set with MDA-MB-231 came to 93.9%; with MCF7, 93.8%. Also, in the data set on HEK293, the inhibition worked out at 26.3%. Also, in data set [2], the Ratio is 1.

As for `C[C@H](NC(=O)OCc1ccccc1)C(=O)N[C@@H](Cc1ccccc1)C(=O)O`, the viability at 6 h, 20 ug/ml in data set [1] stood at 113%. In addition, the viability at 20 µg/mL in the data set with MDA-MB-231 was 98.9%; in the data set on MCF7 it was 63.9%. For the same compound, the inhibition in the data set with HEK293 came to 18.7%. In data set [2], the Ratio stood at 1.1.

In the case of `C[C@H](NC(=O)OCc1ccccc1)C(=O)n1nnc2ccccc21`, the viability at 6 h, 20 ug/ml in data set [1] is 126%. The viability at 20 µg/mL in the data set on MDA-MB-231 is 106%; in the data set with MCF7 it was 104%. Besides, the inhibition in the data set on HEK293 was 32.6%. In addition, the Ratio in data set [2] was determined as 1.

Take `C[C@H](NC(=O)OCc1ccccc1)C(=O)N[C@@H](CO)C(=O)O`: the viability at 6 h, 20 ug/ml in data set [1] came out at 110%. Besides, the viability at 20 µg/mL was determined as 98.1% in the data set with MDA-MB-231 and 78.6% with MCF7. In the data set on HEK293, the inhibition was determined as 13.9%. Besides, the Ratio in data set [2] is 1.1.

For the compound `O=C(N[C@@H](Cc1ccccc1)C(=O)n1nnc2ccccc21)OCc1ccccc1`, the viability at 6 h, 20 ug/ml in data set [1] worked out at 104%. For the same compound, the viability at 20 µg/mL in the data set on MDA-MB-231 stood at 98%; in the data set on MCF7 it was 74.2%. In addition, the Ratio in data set [2] was 1.3.

For `c1ccc2[nH]nnc2c1` [BENZOTRIAZOLE], the viability at 6 h, 20 ug/ml in data set [1] was 99.7%. Moreover, the viability at 20 µg/mL in the data set with MDA-MB-231 is 103%; in the data set on MCF7, 104%. Moreover, the inhibition in the data set with HEK293 was found to be 3.6%. Further, in data set [2], the Ratio came to 1.2.

Turning to `C[C@H](O)[C@H](NC(=O)[C@H](Cc1ccccc1)NC(=O)OCc1ccccc1)C(=O)O`, the viability at 6 h, 20 ug/ml in data set [1] stood at 122%. Moreover, the viability at 20 µg/mL in the data set on MDA-MB-231 was 104%; in the data set on MCF7 it was 58.3%. In addition, in the data set on HEK293, the inhibition amounted to 55.7%. The Ratio in data set [2] turned out to be 2.2.

`O=C(N[C@@H](Cc1ccccc1)C(=O)N[C@H](CO)C(=O)O)OCc1ccccc1`: the viability at 6 h, 20 ug/ml in data set [1] turned out to be 122%. The results for the viability at 20 µg/mL in the data set with MDA-MB-231 and in the data set on MCF7 were 97.4% and 69.5%, respectively. The inhibition in the data set with HEK293 worked out at 24.5%. The Ratio in data set [2] came to 1.5.

Consider `C[C@H](NC(=O)OCc1ccccc1)C(=O)N[C@H](C(=O)O)[C@H](C)O`, for which, in data set [1], the viability at 6 h, 20 ug/ml was found to be 116%. The viability at 20 µg/mL is 92.8% in the data set on MDA-MB-231 and 106% with MCF7. Further, the Ratio in data set [2] amounted to 1.7.
